This is an account of results in US9023859B2, “Composition and method for treating or preventing skeletal muscle fibrosis” (State of Israel, Ministry of Agriculture, Agricultural …, priority 2007, dated 2015).

For assay [1], the system named is Mdx mice. Description: Collagen content (Sirius red) and collagen α1(I) gene expression (in situ hybridization) in quadriceps and tibialis muscles. Format: in vivo. The note with it: I.P. 3 μg/mouse every other day, 4 weeks from 5 weeks of age. On the procedure:
Mdx mice were treated either with halofuginone by I.P. injection every other day (3 μg/mouse) starting at 5 weeks of age for 4 weeks, or with saline vehicle. C57B mice were used as controls. At the end of the 4 week period, tibialis anterior (fast) and quadriceps (slow) muscles were removed for evaluation of fibrosis by Sirius red staining for collagen content, and by in situ hybridization of collagen α1(I) gene expression.

The subject of assay [2] is Mdx mice. Description: Effect on fibrosis (collagen by Sirius red, image analysis) in diaphragm, gastrochnemius and tibialis muscles. Format: in vivo. The following applies: I.P. 5 μg/mouse every other day; for reduction of collagen levels: diaphragm; for reduction of collagen content: gastrochnemius. As to the method: Halofuginone was administered by I.P injection to mdx mice (n=7) from 3 weeks of age every other day at a concentration of 5 μg/mouse. The wild type (C57/BL) and mdx mice without halofuginone served as controls. At the age of 7 and 11 weeks the mice were sacrificed and the diaphragm, gastrochnemius and the tibialis were fixed for histology and samples were frozen for further analysis. Sections were stained for collagen by Sirius red and with methyl green as a counter stain. Image analysis using the Image Pro software was performed for statistical evaluation of the effect of halofuginone on collagen content. For the image analysis, images were taken from 3 animals/group and 4 replicates from each animal/tissue. The results are the ratio of red (R) to green color (G).

The subject of assay [3] is Mdx mice. The experiment in a line: Effect on muscle regeneration (diaphragm central nuclei counting). Format: in vivo, mouse. The note with it: 5 μg or 7.5 μg for 1 or 2 months from 3 weeks of age; dose-dependent. As to the method:
Mdx mice were treated with halofuginone 5 μg or 7.5 μg for 1 or 2 months starting at age of 3 weeks. The untreated mdx mice served as controls. At the end of the experiment, the diaphragms were taken for hematoxyline & eosin staining before central nuclei counting. The results are the mean±SE of 20 photos taken from 3 different mice. Each photo contained approximately 120 fibers

For assay [4], the system named is myostatin gene expression. Description: Myostatin gene expression in fibrotic liver (preliminary experiments). Format: in vivo.

The structures appear in SMILES notation.

Consider `O=C(CC1NCCC[C@H]1O)Cn1cnc2cc(Br)c(Cl)cc2c1=O` (stereo in doubt) [halofuginone, 7-bromo-6-chloro-3-[3-(3-hydroxy-2-piperidinyl)-2-oxopropyl]-4(3H)-quinazolinone], for which the “increase in amount of collagen fibers in mdx muscles” value with Mdx mice [1] (Sirius red) was “almost completely prevented”. Besides, the “increase in expression of collagen α1(I) gene in mdx muscles” value with Mdx mice [1] (in situ hybridization) is recorded as “almost completely prevented”. Further, the results for the “reduction of collagen levels” value in the assay on Mdx mice [2] (7 weeks of age (4 weeks of treatment)) and in the assay on Mdx mice [2] (11 weeks of age (8 weeks of treatment)) were 25% and 53%, respectively. Further, the “reduction of collagen content” value stood at 25% in the assay with Mdx mice [2] (7 weeks of age) and 33% in the assay on Mdx mice [2] (11 weeks of age). Besides, in the assay on Mdx mice [2] (tibialis muscle), the “effect on collagen content” value was “No effect”. Further, in the assay on Mdx mice [3], the “number of diaphragm central nuclei” value is “major reduction”. Besides, the myostatin gene expression entry in assay [4] is reported as “inhibition”.
